The results in this text go back to US9493430B2, “Biaryl- or heterocyclic biaryl-substituted cyclohexene derivative compounds as CETP inhibitors” (CHONG KUN DANG PHARMACEUTICAL CORP., priority 2013, dated 2016).

Structures are written as SMILES.

The assay deals with CETP (Homo sapiens (Human), UniProt P11597). Description: Test for inhibition of cholesteryl ester transfer (in vitro). It counts as biochemical. The settings on record: human plasma as CETP source, LDL from healthy persons as acceptor, rHDL-agarose donor, 37° C. The text has this: Test for Inhibition of Cholesteryl Ester Transfer (In Vitro)
Sequence of CETP (P11597 18-493): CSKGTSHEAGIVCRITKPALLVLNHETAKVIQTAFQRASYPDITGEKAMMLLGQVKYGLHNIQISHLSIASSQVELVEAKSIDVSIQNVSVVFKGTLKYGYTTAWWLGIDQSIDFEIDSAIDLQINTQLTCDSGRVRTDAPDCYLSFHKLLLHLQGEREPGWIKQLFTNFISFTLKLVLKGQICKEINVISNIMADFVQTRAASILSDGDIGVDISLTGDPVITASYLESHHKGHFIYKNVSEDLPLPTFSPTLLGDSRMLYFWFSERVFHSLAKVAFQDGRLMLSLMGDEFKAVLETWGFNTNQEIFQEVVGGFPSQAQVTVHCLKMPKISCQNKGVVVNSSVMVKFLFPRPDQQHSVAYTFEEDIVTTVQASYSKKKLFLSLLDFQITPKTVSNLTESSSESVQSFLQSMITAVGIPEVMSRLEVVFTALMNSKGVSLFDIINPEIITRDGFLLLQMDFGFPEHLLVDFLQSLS
1. Construction of Cholesteryl Ester Donor
To construct a cholesteryl ester donor to be used in the test, radiolabeled recombinant HDL containing […] (GE healthcare, TRK886, 3.5 μCi/mg of apoA-1) and apoA-1 was synthesized. Then, rHDL-agarose having the recombinant HDL immobilized thereon by CNBr-activated Sepharose 4B (Amersham Biosciences, Sweden) resin was used in the test.
2. Cholesteryl Ester Transfer Test
As a protein source for cholesteryl ester transfer, plasma from healthy persons was used, and as a cholesteryl ester receptor, LDL from healthy persons was used. Samples were treated with each test compound to final concentrations of 16, 80, 400, 2000 and 10000 nM and analyzed in duplicate. For the cholesteryl ester transfer test, 20 μl of plasma, 50 μl of LDL (0.25 mg/ml) and 50 μl of rHDL-agarose (0.25 mg/ml) were added, and a solution containing a test compound was added, followed by reaction at 37° C. Then, centrifugation was performed at 4° C. for 3 minutes to stop the reaction, and 150 μl of the supernatant was taken and transferred to a 96-well plate for radioactivity measurement, and the radioactivity of the plate was measured with a beta-ray detector.
3. Statistical Processing
The ratio of [^3H]-cholesteryl oleate from HDL to LDL was calculated and used as a result value, and from the result value, IC50 value was calculated using GraphPad Prism 5.0.
On to `C[C@H]1[C@@H](c2cc(C(F)(F)F)cc(C(F)(F)F)c2)OC(=O)N1CC1=C(c2cc(-c3ccc(C(=O)O)cc3F)cc(C(F)(F)F)c2)CCC(C)(C)C1` [Compound 748, 3′-(2-(((4S,5R)-5-(3,5-bis(trifluoromethyl)phenyl)-4-methyl-2-oxooxazolidin-3-yl)methyl)-4,4-dimethylcyclohex-1-enyl)-2-fluoro-5′-(trifluoromethyl)biphenyl-4-carboxylic acid], for which half-maximal inhibition (IC50) required 0.0159 µM.
Turning to `COc1cc(C)c(-c2ccc(C(=O)O)cc2)cc1C1=C(CN2C(=O)O[C@H](c3cc(C(F)(F)F)cc(C(F)(F)F)c3)[C@@H]2C)CC(C)(C)CC1` [Compound 620, 5′-(2-(((4S,5R)-5-(3,5-bis(trifluoromethyl)phenyl)-4-methyl-2-oxooxazolidin-3-yl)methyl)-4,4-dimethylcyclohex-1-enyl)-4′-methoxy-2′-methylbiphenyl-4-carboxylic acid], the IC50 was 0.0116 µM.
Regarding `Cc1cc(C(=O)O)ccc1-c1cc(C2=C(CN3C(=O)O[C@H](c4cc(C(F)(F)F)cc(C(F)(F)F)c4)[C@@H]3C)CC(C)(C)CC2)ccc1C` [Compound 677, 5′-(2-(((4S,5R)-5-(3,5-bis(trifluoromethyl)phenyl)-4-methyl-2-oxooxazolidin-3-yl)methyl)-4,4-dimethylcyclohex-1-enyl)-2,2′-dimethylbiphenyl-4-carboxylic acid], the IC50 came out at 0.0159 µM.
In the case of `COc1ccc(-c2ccc(C(=O)O)cc2OC)cc1C1=C(CN2C(=O)O[C@H](c3cc(C(F)(F)F)cc(C(F)(F)F)c3)[C@@H]2C)CC(C)(C)CC1` [Compound 597, 3′-(2-(((4S,5R)-5-(3,5-bis(trifluoromethyl)phenyl)-4-methyl-2-oxooxazolidin-3-yl)methyl)-4,4-dimethylcyclohex-1-enyl)-2,4′-dimethoxybiphenyl-4-carboxylic acid] it was 0.0502 µM; in that of `COc1ccc(-c2ccc(C(=O)O)cc2F)cc1C1=C(CN2C(=O)O[C@H](c3cc(C(F)(F)F)cc(C(F)(F)F)c3)[C@@H]2C)CC(C)(C)CC1` [Compound 561, 3′-(2-(((4S,5R)-5-(3,5-bis(trifluoromethyl)phenyl)-4-methyl-2-oxooxazolidin-3-yl)methyl)-4,4-dimethylcyclohex-1-enyl)-2-fluoro-4′-methoxybiphenyl-4-carboxylic acid], 0.0232 µM.
As to `COc1ncc(-c2ccc(C(=O)O)cc2C(C)C)cc1C1=C(CN2C(=O)O[C@H](c3cc(C(F)(F)F)cc(C(F)(F)F)c3)[C@@H]2C)CC(C)(C)CC1` [Compound 578, 4-(3-(2-(((4S,5R)-5-(3,5-bis(trifluoromethyl)phenyl)-4-methyl-2-oxooxazolidin-3-yl)methyl)-4,4-dimethylcyclohex-1-enyl)-2-methoxypyridin-5-yl)-3-isopropylbenzoic acid], 0.0126 µM corresponded to half-maximal inhibition (IC50).
In the case of `COc1cc(C2=C(CN3C(=O)O[C@H](c4cc(C(F)(F)F)cc(C(F)(F)F)c4)[C@@H]3C)CC(C)(C)CC2)cc(-c2ccc(C(=O)O)cc2C)c1` [Compound 689, 3′-(2-(((4S,5R)-5-(3,5-bis(trifluoromethyl)phenyl)-4-methyl-2-oxooxazolidin-3-yl)methyl)-4,4-dimethylcyclohex-1-enyl)-5′-methoxy-2-methylbiphenyl-4-carboxylic acid] it was 0.0243 µM; in that of `COc1cc(C(F)(F)F)c(-c2ccc(C(=O)O)c(F)c2)cc1C1=C(CN2C(=O)O[C@H](c3cc(C(F)(F)F)cc(C(F)(F)F)c3)[C@@H]2C)CC(C)(C)CC1` [Compound 614, 5′-(2-(((4S,5R)-5-(3,5-bis(trifluoromethyl)phenyl)-4-methyl-2-oxooxazolidin-3-yl)methyl)-4,4-dimethylcyclohex-1-enyl)-3-fluoro-4′-methoxy-2′-(trifluoromethyl)biphenyl-4-carboxylic acid], 0.027 µM; in that of `COc1ncc(-c2ccc(C(=O)O)c(F)c2F)cc1C1=C(CN2C(=O)O[C@H](c3cc(C(F)(F)F)cc(C(F)(F)F)c3)[C@@H]2C)CC(C)(C)CC1` [Compound 596, 4-(3-(2-(((4S,5R)-5-(3,5-bis(trifluoromethyl)phenyl)-4-methyl-2-oxooxazolidin-3-yl)methyl)-4,4-dimethylcyclohex-1-enyl)-2-methoxypyridin-5-yl)-2,3-difluorobenzoic acid], 0.0179 µM.
In the case of `COc1cc(F)c(-c2ccc(C(=O)O)cc2)cc1C1=C(CN2C(=O)O[C@H](c3cc(C(F)(F)F)cc(C(F)(F)F)c3)[C@@H]2C)CC(C)(C)CC1` [Compound 575, 5′-(2-(((4S,5R)-5-(3,5-bis(trifluoromethyl)phenyl)-4-methyl-2-oxooxazolidin-3-yl)methyl)-4,4-dimethylcyclohex-1-enyl)-2′-fluoro-4′-methoxybiphenyl-4-carboxylic acid] it was 0.0146 µM; in that of `COc1ccc(-c2ccc(C(=O)O)cc2C(F)(F)F)nc1C1=C(CN2C(=O)O[C@H](c3cc(C(F)(F)F)cc(C(F)(F)F)c3)[C@@H]2C)CC(C)(C)CC1` [Compound 764, 4-(2-(2-(((4S,5R)-5-(3,5-bis(trifluoromethyl)phenyl)-4-methyl-2-oxooxazolidin-3-yl)methyl)-4,4-dimethylcyclohex-1-enyl)-3-methoxypyridin-6-yl)-3-(trifluoromethyl)benzoic acid], 0.0089 µM.
`C[C@H]1[C@@H](c2cc(C(F)(F)F)cc(C(F)(F)F)c2)OC(=O)N1CC1=C(c2ccc(F)c(-c3ccc(C(=O)O)cc3C(F)(F)F)c2)CCC(C)(C)C1` [Compound 723, 5′-(2-(((4S,5R)-5-(3,5-bis(trifluoromethyl)phenyl)-4-methyl-2-oxooxazolidin-3-yl)methyl)-4,4-dimethylcyclohex-1-enyl)-2′-fluoro-2-(trifluoromethyl)biphenyl-4-carboxylic acid] displayed an IC50 of 0.0096 µM.
Then `COc1cc(C(F)(F)F)c(-c2ccc(C(=O)O)cc2C)cc1C1=C(CN2C(=O)O[C@H](c3cc(C(F)(F)F)cc(C(F)(F)F)c3)[C@@H]2C)CC(C)(C)CC1` [Compound 616, 5′-(2-(((4S,5R)-5-(3,5-bis(trifluoromethyl)phenyl)-4-methyl-2-oxooxazolidin-3-yl)methyl)-4,4-dimethylcyclohex-1-enyl)-4′-methoxy-2-methyl-2′-(trifluoromethyl)biphenyl-4-carboxylic acid], with 0.0076 µM; and `C[C@H]1[C@@H](c2cc(C(F)(F)F)cc(C(F)(F)F)c2)OC(=O)N1CC1=C(c2cc(-c3ccc(C(=O)O)cc3Cl)ccc2F)CCC(C)(C)C1` [Compound 739, 3′-(2-(((4S,5R)-5-(3,5-bis(trifluoromethyl)phenyl)-4-methyl-2-oxooxazolidin-3-yl)methyl)-4,4-dimethylcyclohex-1-enyl)-2-chloro-4′-fluorobiphenyl-4-carboxylic acid], with 0.0203 µM; and `C[C@H]1[C@@H](c2cc(C(F)(F)F)cc(C(F)(F)F)c2)OC(=O)N1CC1=C(c2cc(-c3ccc(C(=O)O)cc3C(F)(F)F)ccc2Cl)CCC(C)(C)C1` [Compound 729, 3′-(2-(((4S,5R)-5-(3,5-bis(trifluoromethyl)phenyl)-4-methyl-2-oxooxazolidin-3-yl)methyl)-4,4-dimethylcyclohex-1-enyl)-4′-chloro-2-(trifluoromethyl)biphenyl-4-carboxylic acid], with 0.0075 µM.
Then `COC(=O)c1ccc(-c2cnc(OC)c(C3=C(CN4C(=O)O[C@H](c5cc(C(F)(F)F)cc(C(F)(F)F)c5)[C@@H]4C)CC(C)(C)CC3)c2)c(C)c1` [Compound 555, methyl 4-(3-(2-(((4S,5R)-5-(3,5-bis(trifluoromethyl)phenyl)-4-methyl-2-oxooxazolidin-3-yl)methyl)-4,4-dimethylcyclohex-1-enyl)-2-methoxypyridin-5-yl)-3-methylbenzoate], with 0.0284 µM; and `COC(=O)c1ccc(-c2cc(C3=C(CN4C(=O)O[C@H](c5cc(C(F)(F)F)cc(C(F)(F)F)c5)[C@@H]4C)CC(C)(C)CC3)c(OC)cc2F)c(C)c1` [Compound 572, methyl 5′-(2-(((4S,5R)-5-(3,5-bis(trifluoromethyl)phenyl)-4-methyl-2-oxooxazolidin-3-yl)methyl)-4,4-dimethylcyclohex-1-enyl)-2′-fluoro-4′-methoxy-2-methylbiphenyl-4-carboxylate], with 0.015 µM; and `COc1cc(C(F)(F)F)c(-c2ccc(C(=O)O)cc2)cc1C1=C(CN2C(=O)O[C@H](c3cc(C(F)(F)F)cc(C(F)(F)F)c3)[C@@H]2C)CC(C)(C)CC1` [Compound 612, 5′-(2-(((4S,5R)-5-(3,5-bis(trifluoromethyl)phenyl)-4-methyl-2-oxooxazolidin-3-yl)methyl)-4,4-dimethylcyclohex-1-enyl)-4′-methoxy-2′-(trifluoromethyl)biphenyl-4-carboxylic acid], with 0.0069 µM.
In turn, `COc1ccc(-c2ccc(C(=O)O)c(F)c2F)cc1C1=C(CN2C(=O)O[C@H](c3cc(C(F)(F)F)cc(C(F)(F)F)c3)[C@@H]2C)CC(C)(C)CC1` [Compound 592, 3′-(2-(((4S,5R)-5-(3,5-bis(trifluoromethyl)phenyl)-4-methyl-2-oxooxazolidin-3-yl)methyl)-4,4-dimethylcyclohex-1-enyl)-2,3-difluoro-4′-methoxybiphenyl-4-carboxylic acid] returned a concentration for half-maximal inhibition (IC50) of 0.0084 µM.

As usually defined, the IC50 is the point on the concentration scale where inhibition reaches its midpoint. Lower therefore signals higher potency.
